# Source: patent publication US8946266B2, “Substituted triazole and imidazole derivatives as gamma secretase modulators” (Janssen Pharmaceuticals, Inc., priority 2009, dated 2015)
# Columns and labels:
# Aβ42 [1] = experiment: In vivo efficacy, Method 1: brain soluble Aβ42 lowering 4 h after a single oral dose, ELISA (Table 4a); parameters: species or system mouse; settings: dose 30 mg/kg oral dosing
# Description: To determine whether acute administration of an Aβ42 lowering agent would reduce Aβ42 levels in vivo, non-transgenic rodents, e.g. mice or rats were used. Alternatively, two to three month old Tg2576 mice expressing APP695 containing the “Swedish” variant can be used or a transgenic mouse model developed by Dr. Fred Van Leuven (K.U. Leuven, Belgium) and co-workers, with neuron-specific expression of a clinical mutant of the human amyloid precursor protein [V717I] (Moechars et al., 1999 J. Biol. Chem. 274, 6483). Young transgenic mice have high levels of Aβ in the brain but no detectable Aβ deposition. At approximately 6-8 months of age, the transgenic mice start to display spontaneous, progressive accumulation of β-amyloid (Aβ) in the brain, eventually resulting in amyloid plaques within the subiculum, hippocampus and cortex. Animals treated with the Aβ42 lowering agent were examined and compared to those untreated or treated with vehicle and brain levels of soluble Aβ42 and total Aβ would be quantitated by standard techniques, for example, using ELISA. Treatment periods varied from hours (h) to days and were adjusted based on the results of the Aβ42 lowering once a time course of onset of effect could be established.
# A typical protocol for measuring Aβ42 lowering in vivo is shown but it is only one of many variations that could be used to optimize the levels of detectable Aβ. For example, Aβ42 lowering compounds were formulated in 20% of Captisol® (a sulfobutyl ether of β-cyclodextrin) in water or 20% hydroxypropyl cyclodextrin. The Aβ42 lowering agents were administered as a single oral dose or by any acceptable route of administration to overnight fasted animals. After 4 h, the animals were sacrificed and Aβ42 levels were analysed.
# Blood was collected by decapitation and exsanguinations in EDTA-treated collection tubes. Blood was centrifuged at 1900 g for 10 minutes (min) at 4° C. and the plasma recovered and flash frozen for later analysis. The brain was removed from the cranium and hindbrain. The cerebellum was removed and the left and right hemisphere were separated. The left hemisphere was stored at −18° C. for quantitative analysis of test compound levels. The right hemisphere was rinsed with phosphate-buffered saline (PBS) buffer and immediately frozen on dry ice and stored at −80° C. until homogenization for biochemical assays.
# Mouse brains were resuspended in 10 volumes of 0.4% DEA (diethylamine)/50 mM NaCl pH 10 (for non-transgenic animals) or 0.1% 3-[(3-cholamidopropyl)-dimethyl-ammonio]-1-propanesulfonate (CHAPS) in tris buffered saline (TBS) (for transgenic animals) containing protease inhibitors (Roche-11873580001 or 04693159001) per gram of tissue, e.g. for 0.158 g brain, add 1.58 ml of 0.4% DEA. All samples were sonicated for 30 seconds on ice at 20% power output (pulse mode). Homogenates were centrifuged at 221.300×g for 50 min. The resulting high speed supernatants were then transferred to fresh tubes and were optionally further purified before the next step. A portion of the supernatant was neutralized with 10% 0.5 M Tris-HCl and this was used to quantify Aβtotal.
# The obtained supernatants were purified with Water Oasis HLB reverse phase columns (Waters Corp., Milford, Mass.) to remove non-specific immunoreactive material from the brain lysates prior subsequent Aβ detection. Using a vacuum manifold, all solutions were passed through the columns at a rate of approximately 1 ml per min, so the vacuum pressure was adjusted accordingly throughout the procedure. Columns were preconditioned with 1 ml of 100% MeOH, before equilibration with 1 ml of H2O, Non-neutralized brain lysates were loaded onto the columns. The loaded samples were then washed twice with the first wash performed with 1 ml of 5% MeOH, and the second wash with 1 ml of 30% MeOH. Finally, the Aβ was eluted from the columns and into 100×30 mm glass tubes, with a solution of 90% MeOH with 2% NH4OH. […]
# Aβtotal = experiment: In vivo efficacy, Method 2: brain soluble Aβtotal lowering 4 h after a single oral dose, ELISA (Table 4b); parameters: species or system mouse; settings: dose 30 mg/kg oral dosing
# Summary of the method: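 Non-transgenic mice or rats, fasted overnight, received a single oral dose (30 mg/kg) in 20% Captisol or 20% hydroxypropyl β-cyclodextrin, or vehicle, and were sacrificed after 4 h. Right brain hemisphere was extracted in 0.4% DEA/50 mM NaCl, and soluble Aβtotal in the high-speed supernatant was measured by sandwich ELISA (JRF/rAβ/2 capture, biotinylated 4G8 detection, fluorogenic read-out).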
# Aβ42 [2] = experiment: In vivo efficacy, Method 2: brain soluble Aβ42 lowering 4 h after a single oral dose, ELISA (Table 4b); parameters: species or system mouse; settings: dose 30 mg/kg oral dosing
# Summary of the method: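 Overnight-fasted non-transgenic rodents got a single oral dose of 30 mg/kg in 20% Captisol or 20% hydroxypropyl β-cyclodextrin and were killed 4 h later. Right-hemisphere soluble fraction (0.4% DEA/50 mM NaCl extract, neutralised) was assayed for Aβ42 by sandwich ELISA with fluorogenic read-out, compared with untreated animals.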
Compound,melting point,Aβ42 (% Ctrl) _Mean (Aβ42 [1]),Aβtotal (% Ctrl) _Mean (Aβtotal),Aβ42 (% Ctrl) _Mean (Aβ42 [2])
COc1cc(-c2nc(-c3ccccc3)n(C)n2)ccc1-n1cnc(C)c1 [Compound 9],115.8 °C,24 % Ctrl,–,–
COc1cc(-c2nc(C)c(-c3ccccc3)[nH]2)ccc1-n1cnc(C)c1 [Compound 11],–,4 % Ctrl,–,–
COc1cc(-c2nc(Nc3ccc(F)cc3C(F)(F)F)n(C)n2)ccc1-n1cnc(C)c1 [Compound 15],–,42 % Ctrl,−5 % Ctrl,37 % Ctrl
COc1cc(-c2nc(Nc3cccc(C(F)(F)F)c3)n(C)n2)ccc1-n1cnc(C)c1 [Compound 146],–,27 % Ctrl,2 % Ctrl,17 % Ctrl
